Results reported in PubChem BioAssay (NCI).
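Step 1: Grow cells in 96-well plates. Step 2: Expose to compound for 48 hours at 5 concentrations. Step 3: Interpolate endpoints linearly; if unreached, use highest concentration. GI50 = concentration required for 50% inhibition of growth. TGI: concentration producing complete growth inhibition.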

Legend:
Assay in all cases: NCI tumour cell line growth inhibition, 48 h
786-0 renal = system: 786-0 renal
A498 renal = system: A498 renal
A549 NSCLC = system: A549 NSCLC
ACHN renal = system: ACHN renal
CAKI-1 renal = system: CAKI-1 renal
CCRF-CEM leukemia = system: CCRF-CEM leukemia
COLO 205 colon = system: COLO 205 colon
DU-145 prostate = system: DU-145 prostate
EKVX NSCLC = system: EKVX NSCLC
HCC-2998 colon = system: HCC-2998 colon
HCT-116 colon = system: HCT-116 colon
HCT-15 colon = system: HCT-15 colon
HL-60(TB) leukemia = system: HL-60(TB) leukemia
HOP-62 NSCLC = system: HOP-62 NSCLC
HOP-92 NSCLC = system: HOP-92 NSCLC
HS 578T breast = system: HS 578T breast
HT29 colon = system: HT29 colon
IGROV1 ovarian = system: IGROV1 ovarian
K-562 leukemia = system: K-562 leukemia
KM12 colon = system: KM12 colon
LOX IMVI melanoma = system: LOX IMVI melanoma
M14 melanoma = system: M14 melanoma
MALME-3M melanoma = system: MALME-3M melanoma
MCF7 breast = system: MCF7 breast
MDA-MB-231 breast = system: MDA-MB-231 breast
MDA-MB-435 = system: MDA-MB-435
MOLT-4 leukemia = system: MOLT-4 leukemia
NCI-H226 lung = system: NCI-H226 lung

COc1cc(/C=C2\C(=O)Nc3ccccc32)cc(OC)c1O
GI50 (786-0 renal): 7.07 µM
TGI (786-0 renal): 27.5 µM
GI50 (A498 renal): 2.08 µM
TGI (A498 renal): 15.8 µM
GI50 (A549 NSCLC): 4.91 µM
TGI (A549 NSCLC): 48.1 µM
GI50 (ACHN renal): 4.7 µM
TGI (ACHN renal): 22.2 µM
GI50 (CAKI-1 renal): 2.93 µM
TGI (CAKI-1 renal): 25.3 µM
GI50 (CCRF-CEM leukemia): 5.16 µM
TGI (CCRF-CEM leukemia): > 100 µM
GI50 (COLO 205 colon): 12.3 µM
TGI (COLO 205 colon): 26.8 µM
GI50 (DU-145 prostate): 5.35 µM
TGI (DU-145 prostate): 46.4 µM
GI50 (EKVX NSCLC): 4.86 µM
TGI (EKVX NSCLC): 48.2 µM
GI50 (HCC-2998 colon): 11.9 µM
TGI (HCC-2998 colon): 24.5 µM
GI50 (HCT-116 colon): 3.29 µM
TGI (HCT-116 colon): 13.5 µM
GI50 (HCT-15 colon): 3.16 µM
TGI (HCT-15 colon): 15.1 µM
GI50 (HL-60(TB) leukemia): 2.8 µM
TGI (HL-60(TB) leukemia): 11.1 µM
GI50 (HOP-62 NSCLC): 4.24 µM
TGI (HOP-62 NSCLC): 23.2 µM
GI50 (HOP-92 NSCLC): 4.15 µM
TGI (HOP-92 NSCLC): 49.2 µM
GI50 (HS 578T breast): 1.77 µM
TGI (HS 578T breast): 6.11 µM
GI50 (HT29 colon): 9.07 µM
TGI (HT29 colon): 31.1 µM
GI50 (IGROV1 ovarian): 3.72 µM
TGI (IGROV1 ovarian): 20.4 µM
GI50 (K-562 leukemia): 2.12 µM
TGI (K-562 leukemia): > 100 µM
GI50 (KM12 colon): 2.53 µM
TGI (KM12 colon): 11.5 µM
GI50 (LOX IMVI melanoma): 3.99 µM
TGI (LOX IMVI melanoma): 16.3 µM
GI50 (M14 melanoma): 2.76 µM
TGI (M14 melanoma): 11 µM
GI50 (MALME-3M melanoma): 2.98 µM
TGI (MALME-3M melanoma): 21.8 µM
GI50 (MCF7 breast): 0.728 µM
TGI (MCF7 breast): 15 µM
GI50 (MDA-MB-231 breast): 3.09 µM
TGI (MDA-MB-231 breast): 20.8 µM
GI50 (MDA-MB-435): 0.649 µM
TGI (MDA-MB-435): 2.21 µM
GI50 (MOLT-4 leukemia): 3.82 µM
TGI (MOLT-4 leukemia): 92.3 µM
GI50 (NCI-H226 lung): 17.7 µM
TGI (NCI-H226 lung): > 100 µM
